The values that follow come from patent EP0190496A2, “Piperidine derivatives having a gastro-intestinal activity” (BEECHAM GROUP PLC, priority 1984, dated 1986).

Structures can show the parent of a compound that is named as a salt.

One assay has as its system Cold restraint stress - induced gastric erosions. As to the kind of experiment: Cold restraint stress-induced gastric erosions (antiulcer test). Type of assay: in vivo, Male Wistar rats. Particulars: Oral Dose 25 µmol/kg in 0.5% methylcellulose, 30 min before 2.5 hours at 4°C in restraint; mucosal damage scored visually; * p<0.05, ** p<0.01 (Wilcoxon). The procedure:
Male Wistar rats, 175-225g bodyweight are used. Forty eight hours prior to testing, animals are placed in mesh-bottomed cages with 10-12 animals per cage. Twenty-four hours prior to testing, animals are placed in the dark at a temperature of l7 °C. Sixteen hours prior to testing, food is removed from the cages. Drugs are made up in 0.5% methylcellulose, and adminstered at a volume of 1.0ml/100g bodyweight. Eight rats per group are used, with usually 1 control group and 2 test groups. Animals are placed in Bollman type restraining cages and arranged in a vertical position. Thirty minutes after dosing the animals are placed in an ambient temperature of 4 °C for 2.5 hours. At the end of this time the rats are sacrificed, the stomachs removed, cut open and pinned out on cork boards. Mucosal damage is assessed visually and scored on a subjective scale. Statistical differences between control and test groups are assessed using a Wilcoxon Ranking Test.
For the compound `COc1ccccc1[C@@H]1CCN(Cc2ccccc2)C[C@H]1COc1ccc2c(c1)OCO2` (racemic) [Example 2, (±)trans 1-Benzyl-4-(2'-methoxyphenyl)-3-(3',4'-methylenedioxyphenoxymethyl)piperidine hydrochloride], the “% Inhibition of gastric erosions” value is 58* %.
The same measure, in the same setting: with `Fc1ccc([C@@H]2CCN(Cc3ccccc3)C[C@H]2COc2ccc3c(c2)OCO3)cc1` (single isomer, unassigned) [Example 1, (-)-trans-l-Benzyl-4-(4'-fluorophenyl)-3-(3',4'-methylenedioxyphenoxymethyl)piperidine hydrochloride] the figure was 53** %.

The test system of a further assay is ethanol-induced gastric mucosal erosive damage in the rat. As to the kind of experiment: Inhibition of ethanol-induced gastric mucosal erosive damage (antiulcer test). Type of assay: in vivo. Conditions: Oral Dose 25 µmol/kg, 90 min before 1 ml/rat p.o. absolute ethanol; stomach scored 10 min later; * p<0.05, ** p<0.01, *** p<0.001 (Mann-Whitney U-test).
Source text: The object of the experiment was to test the ability of drugs to inhibit a state of gastric submucosal haemorrhage induced by absolute ethanol in the conscious rat.
The procedure used was as follows. Male rats, preferably Wistars, were fasted overnight in wire mesh bottom cages, so as to prevent copraphagy. Water was allowed ad. libitum. Six or seven rats per cage were regarded as suitable, and the weight range of the rats used was between 175 and 300g. Water was removed one hour prior to treatment. The rats were then randomly allocated to their respective treatment groups, so that there were no less than five rats per group. One control group was always included.
Each rat was pre-dosed with lml/100g of control or test drug, dissolved or suspended in 0.5% methyl cellulose or 1% Tween 80 in water, via an oral dosing needle. Ninety minutes later each rat was dosed with lml/rat p.o. of absolute ethanol. Ten minutes after the absolute ethanol, the rats were killed by an intracardiac injection of Expiral^*. The stomachs were excised, cut open along the greater curvature to expose the mucosal surface, washed in tap water to remove debris, then stretched on a cork board for examination.
A subjective macroscopic examination of the stomach was carried out with a damage score being allocated to each stomach. Two observers were usually used, one of whom scored the results in a 'blinded' manner. The results were then analysed by the Mann-Whitney U-test, with p<0.05 being regarded as statistically significant.
^*(sodium pentobarbitone solution 200mg/ml)
For the compound “(+) cis-l-(4'-Fluorobenzyl)-4-(4'-fluorophenyl)-3-(3', 4'-methylenedioxyphenoxymethyl)piperidine hydrochloride [Example 12]”, the “% Inhibition of gastric erosions” value was 84.9** %.
For “(+)cis-1-Benzyl-4-(4'-fluorophenyl)3-(3',4'-methylene- dioxyphenoxymethyl)piperidine hydrochloride [Example 7]”, the “% Inhibition of gastric erosions” value is 63.1** %.
Regarding “(-) cis-l-(4'-Fluorobenzyl)-4-(4'-fluorophenyl)-3-(3', 4'-methylenedioxyphenoxymethyl)piperidine hydrochloride [Example 13]”, the “% Inhibition of gastric erosions” value was 46** %.
“(-)cis-l-Benzyl-4-(4'-fluorophenyl)-3-(3',4'-methylene- dioxyphenoxymethyl)piperidine hydrochloride [Example 8]”: the “% Inhibition of gastric erosions” value is 46.8* %.

The assay is the same for the next values; noted with them: Oral Dose 25 µmol/kg, 90 min before 1 ml/rat p.o. absolute ethanol; stomach scored 10 min later; * p<0.05, ** p<0.01, *** p<0.001 (Mann-Whitney U-test); read-out: % Inhibition of gastric erosions.
In the case of `COc1ccccc1[C@@H]1CCN(Cc2ccccc2)C[C@H]1COc1ccc2c(c1)OCO2` (racemic) [Example 2, (±)trans 1-Benzyl-4-(2'-methoxyphenyl)-3-(3',4'-methylenedioxyphenoxymethyl)piperidine hydrochloride], the inhibition in vivo at 25 µmol/kg is 47.7%.
With `Fc1ccc(C2=CCN(Cc3ccccc3)CC2COc2ccc3c(c2)OCO3)cc1` (racemic) [Example 11, (±)-1-Benzyl-4-(4'-fluorophenyl)-3-(3,4-methylenedioxy-phenoxymethyl)-1,2,3,6-tetrahydropyridine hydrochloride], the inhibition in vivo at 25 µmol/kg was 26%.
Still for that read-out and setting: with `Cc1ccccc1[C@@H]1CCN(Cc2ccccc2)C[C@H]1COc1ccc2c(c1)OCO2` (racemic) [Example 17, (±)-trans-1-Benzyl-3-(3',4'-methylenedioxyphenoxy-methyl)-4-(2'-methylphenyl)piperidine hydrochloride] the figure was 31%.
Still for that read-out and setting: with `Fc1ccc([C@@H]2CCN(Cc3ccccc3)C[C@H]2COc2ccc3c(c2)OCO3)cc1` (single isomer, unassigned) [Example 1, (-)-trans-l-Benzyl-4-(4'-fluorophenyl)-3-(3',4'-methylenedioxyphenoxymethyl)piperidine hydrochloride] the figure was 66%; with `Fc1ccc(CN2CC[C@@H](c3ccc(F)cc3)[C@H](COc3ccc4c(c3)OCO4)C2)cc1` (single isomer, unassigned) [Example 9, (-) trans-l-(4'-fluorobenzyl)-4-(4'-fluorophenyl)-3-(3',4'-methylenedioxyphenoxymethyl)piperidine hydrochloride], 71%.
Still for that read-out and setting: the value for `Fc1ccc([C@@H]2CCN(Cc3ccccc3F)C[C@H]2COc2ccc3c(c2)OCO3)cc1` (single isomer, unassigned) [Example 14, (-) trans-l-(2'-Fluorobenzyl)-4-(4'-fluorophenyl)-3-(3',4-methylenedioxyphenoxymethyl)piperidine hydrochloride] was 39%; that for `c1ccc(CN2CC[C@@H](c3ccccc3)[C@H](COc3ccc4c(c3)OCO4)C2)cc1` (single isomer, unassigned) [Example 15, (-) trans-l-Benzyl-3-(3',4'-methylenedioxyphenoxy-methyl)-4-phenylpiperidine hydrochloride] was 67%.
As for `Fc1ccc(CN2CC[C@@H](c3ccccc3)[C@H](COc3ccc4c(c3)OCO4)C2)cc1` (single isomer, unassigned) [Example 16, (-) trans-l-(4'-Fluorobenzyl)-3-(3',4'-methylenedioxy-phenoxymethyl)-4-phenylpiperidine hydrochloride], the inhibition in vivo at 25 µmol/kg amounted to 83%.
With `Fc1ccc(C2CCN(Cc3ccccc3)CC2COc2ccc3c(c2)OCO3)cc1` (single isomer, unassigned; (+)) [Example 5, (+)trans-l-Benzyl-4-(4'-fluorophenyl)-3-(3',4'-methylenedioxyphenoxymethyl)piperidine hydrochloride], the inhibition in vivo at 25 µmol/kg was 30%.

The assay is the same for the next values; noted with them: Rattus norvegicus, po, read-out: % Inhibition of gastric erosions.
For the compound `Cc1ccc(OC[C@@H]2CN(Cc3ccccc3)CC[C@H]2c2ccc(F)cc2)cc1` (racemic) [Example 18, (±)-trans-1-Benzyl-4-(4'-fluorophenyl)-3-(4'-methylphenoxymethyl)piperidine maleate], the inhibition in vivo at 25 µmol/kg stood at 21%.
As to `Cc1ccc(OC[C@@H]2CN(Cc3ccc(F)cc3)CC[C@H]2c2ccc(F)cc2)cc1` (racemic) [Example 19, (±)-trans-1-(4'-Fluorobenzyl)-4-(4'-fluorophenyl)-3-(4'-methylphenoxymethyl)piperidine maleate], the inhibition in vivo at 25 µmol/kg amounted to 69%.
As for `Fc1ccc(CN2CC[C@@H](c3ccc(F)cc3)[C@H](COc3ccccc3)C2)cc1` (racemic) [Example 20, (±)-trans-1-(4'-Fluorobenzyl)-4-(4'-fluorophenyl)-3-phenoxymethylpiperidine maleate], the inhibition in vivo at 25 µmol/kg came out at 70%.
Same read-out and setting: the value for `Fc1ccc(OC[C@@H]2CN(Cc3ccccc3)CC[C@H]2c2ccc(F)cc2)cc1` (racemic) [Example 21, (±)-trans-1-Benzyl-3-(4'-fluorophenoxymethyl)-4-(4'-fluorophenyl)piperidine maleate] was 27%; that for `Fc1ccc(CN2CC[C@@H](c3ccc(F)cc3)[C@H](COc3ccc(F)cc3)C2)cc1` (racemic) [Example 22, (±)-trans-1-(4'-Fluorobenzyl)-3-(4'-fluorophenoxy-methyl)-4-(4'-fluorophenyl)piperidine maleate] was 53%.

In a further assay the test system is Heidenhain pouch of the dog. The experiment in a line: Gastro-intestinal motility: intraluminal pressure in the Heidenhain pouch. Type of assay: in vivo. Conditions: dose of 0.5mg/kg i.v., conscious fasted dog, chronic Heidenhain pouch. The procedure:
Pressure changes were recorded via a saline filled catheter inserted, with airtight closure, into the fistula of a chronic Heidenhain pouch of the previously fasted and lightly restrained conscious dog. The catheter was connected to a physiological pressure transducer and pressure changes recorded on a hot wire pen recorder. Compounds were administered when the motility was in a phase of relatively low activity and the dose range determined which induced an increase in the amplitude of rhythmical contractions for a period of at least 4-5 minutes.
With `Fc1ccc([C@@H]2CCN(Cc3ccccc3)C[C@H]2COc2ccc3c(c2)OCO3)cc1` (single isomer, unassigned) [Example 1, (-)-trans-l-Benzyl-4-(4'-fluorophenyl)-3-(3',4'-methylenedioxyphenoxymethyl)piperidine hydrochloride], the “increase in the amplitude of rhythmical contractions for a period of at least 4-5 minutes” value is recorded as “active”.
